The target of one test is T1, CNOT7 (Homo sapiens, UniProt Q9UIV1).
T1 construct: biotin (biotinylated); purchased Ichor Life Sciences
In words: Binding of compounds to CNOT7 by surface plasmon resonance (SPR). In outline:
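Biotinylated CNOT7 captured on a streptavidin chip (~7,500 RU); compounds injected at several concentrations (120 s association, 120 s dissociation, 30 ul/min) in 20 mM HEPES pH7.5, 100 mM KCl, 3 mM MgCl2, 1 mM TCEP, 0.05% tween-20, 2% DMSO. Reference- and solvent-corrected sensograms fit to a 1:1 steady-state affinity model.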
(In general: Surface plasmon resonance follows binding to a sensor surface in real time, without labels.)

For test [1], the target named is T2, CNOT7-FKBP12(F36V) fusion protein (Homo sapiens, UniProt Q9UIV1).
T2 construct: expressed in transfected cells; host or cells: H1299 cells; anti-HA immunoprecipitation, HA-peptide elution
T2 sequence (Q9UIV1 with tags, fused parts or gaps): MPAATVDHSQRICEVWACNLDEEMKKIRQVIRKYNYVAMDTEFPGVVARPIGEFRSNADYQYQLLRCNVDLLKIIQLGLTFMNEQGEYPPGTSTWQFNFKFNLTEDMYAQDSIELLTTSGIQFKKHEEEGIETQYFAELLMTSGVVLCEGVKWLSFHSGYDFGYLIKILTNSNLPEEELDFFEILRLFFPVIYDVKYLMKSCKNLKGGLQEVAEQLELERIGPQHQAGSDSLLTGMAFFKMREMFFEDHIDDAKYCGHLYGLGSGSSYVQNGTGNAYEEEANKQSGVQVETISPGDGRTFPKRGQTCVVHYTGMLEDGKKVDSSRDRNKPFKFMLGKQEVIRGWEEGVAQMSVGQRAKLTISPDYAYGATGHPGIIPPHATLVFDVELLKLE
In words: Biochemical gel assay: degradation/deadenylation of RNA substrate with immunoprecipitated CNOT7-FKBP12(F36V). More on the design: key to Activity by gel: +: an activity observed as compared to DMSO control; −: no activity observed as compared to DMSO control. As to conditions: for Activity by gel: Table 8, degradation of RNA, compared to DMSO control. The source says: Biochemical reporter systems were generated to evaluate the ability of CNOT7 binding compounds to accelerate the degradation of RNA by CNOT7. […] Generation of the target RNA was described in the previous experiment. […] The bifunctional molecules consist of Compound 1-4 and the following rSM:
which binds to the RNA sequence of AST-X, or the rSM linked to a tag that binds CNOT7-FKBPV. Specifically, the tag is compound AP1867 (CAS NO.: 195514-23-9), a known binder of FKBPV, resulting in the rSM-AP1867tag. The CNOT7-FKBPV is obtained by immunoprecipitation of cell engineered to express CNOT-FKBPV. Specifically, H1299 cells were transfected with plasmid expressing HA-tagged CNOT7-FKBP12(F36V) fusion protein. After 24 hours, cells were pelleted and lysed in the following lysis buffer: 20 mM HEPES pH 7.3, 0.2 mM EGTA, 10% glycerol, 0.1 mM DTT with cOmplete EDTA-free protease inhibitors (Millipore). After freeze-thawing, NaCl was added to a concentration of 400 mM and lysates were pelleted to clear cellular debris. Cleared lysate was adjusted to buffer conditions containing 0.1% NP-40 and 150 mM NaCl before being applied to Pierce Anti-HA magnetic beads (ThermoFisher) at 4° C. for 2-20 hours with end-over-end rotation. After washing, bound protein was competitively eluted with 2 mg/mL HA peptide (ThermoFisher) in activity assay buffer at 4° C. for 2-20 hours. It should be appreciated that this immunoprecipitation protocol will result in tagged CNOT7 that will likely have other components of the CCR4-NOT complex bound as well.
The reactions were incubated at 37° C., with specified timepoints removed from the reaction and combined with 2× formamide RNA loading buffer with 10 mM EDTA before boiling for 3 minutes to quench the reaction. Samples were run on a pre-warmed 15% TBE-Urea polyacrylamide gel at 180V for 90 minutes and then imaged using Cy2 settings on the Azure Biosystems 600 Imaging System. […] It should be noted that the CCR4-NOT complex includes proteins other than CNOT7, for instance CNOT6, that have deadenylation and/or exonuclease activity.
These findings were confirmed in the biochemical assay described above. […] In contrast, literature compounds that are active site binders, compounds A, B and C, structure depicted on the right-hand side, do interfere with the ability of CNOT7 to degrade RNA (See center panel of gel).
Heterobifunctional molecules were generated by conjugating the rSM depicted above, which binds RNA with an AST-X sequence, to AP1867 (a small molecule binder of FKBP12(F36V)), resulting in rSM-AP1867tag. In addition, I-243 was conjugated to the rSM resulting in compounds 1-329 and I-371, depicted in FIG. 17. Fluorescently labeled RNA substrates were refolded in the presence of Mg^2+ and incubated 10, 25, or 50 μM doses of heterobifunctional molecules for 30 minutes at room temperature before the enzymatic reaction was initiated with the elution fraction (containing CNOT7-FKBP12(F36V) fusion protein) from the immunoprecipitation protocol above. The reactions were incubated at 37° C., with specified timepoints removed from the reaction and combined with 2× formamide RNA loading buffer with 10 mM EDTA before boiling for 3 minutes to quench the reaction. Samples were run on a pre-warmed 15% TBE-Urea polyacrylamide gel at 180V for 120 minutes and then imaged using Cy2 settings on the Azure Biosystems 600 Imaging System (See FIGS. 18, 19A and 19B). In addition, for 1-371 and the control rSM-AP1867tag, the disappearance of the full-length substrate band was quantified using ImageJ and plotted over time (FIG. 19B).

The mark [2] stands for this setting: dissociation constant by SPR, Table 7.

T1 sequence (Q9UIV1 whole entry): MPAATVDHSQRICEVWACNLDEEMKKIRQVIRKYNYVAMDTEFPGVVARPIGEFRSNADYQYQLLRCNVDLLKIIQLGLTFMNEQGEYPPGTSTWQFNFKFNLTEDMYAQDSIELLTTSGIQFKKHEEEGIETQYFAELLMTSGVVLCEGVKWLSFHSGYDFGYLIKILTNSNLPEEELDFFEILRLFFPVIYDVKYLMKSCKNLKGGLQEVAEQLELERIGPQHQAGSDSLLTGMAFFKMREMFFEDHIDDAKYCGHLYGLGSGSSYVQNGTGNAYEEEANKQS

For the molecule `COc1ccc(C(C)NC(=O)C(COCCOCCOCCc2cn(COc3ccc(NC(=O)Nc4nc(CC(=O)N5CCN(C)CC5)cs4)cc3)nn2)Sc2nc(=O)[nH]cc2C)c(F)c1` (centres unmarked) [Compound I-329], the Kd lay within 1 to 25 µM on CNOT7 (Table 6, dissociation constant for CNOT7 by SPR) and 1 to 25 µM on CNOT7 (setting [2]). Also, the Activity by gel entry in test [1] is given as “−”. Also, the “relative potency in biochemical assay” value in test [1] (bait conjugated to rSM (Example 17, FIG. 18)) is “more potent”.

In the case of `COc1ccc2c(c1)C[C@@H](COCCOCCOCCOCc1cn(CCOc3ccc(NC(=O)Nc4nc(CC(=O)N5CCN(C)CC5)cs4)cc3)nn1)N(C(=O)CSc1nc(=O)[nH]cc1C)C2` [Compound I-338], at CNOT7 (setting [2]), the Kd was > 25 µM. For the same molecule, the Activity by gel entry in test [1] is given as “−”.

For the molecule `COc1ccc2c(c1)C[C@H](COCCOCCOCCOCc1cn(CCOc3ccc(NC(=O)Nc4nc(CC(=O)N5CCN(C)CC5)cs4)cc3)nn1)N(C(=O)CSc1nc(=O)[nH]cc1C)C2` [Compound I-339], the Kd on CNOT7 (setting [2]) is > 25 µM. Besides, in test [1], the Activity by gel entry is “+”.

Regarding `COc1ccc([C@@H](C)NC(=O)[C@@H](COCCOCCOCc2cn(CCOc3ccc(NC(=O)Nc4nc(CC(=O)N5CCN(C)CC5)cs4)cc3)nn2)Sc2nc(=O)[nH]cc2Cl)c(F)c1` [Compound I-372], on CNOT7 (setting [2]), the Kd lay within 1 to 25 µM. Moreover, the Activity by gel entry in test [1] is “+”.

On to `COc1ccc([C@@H](C)NC(=O)[C@H](COCCOCCOCc2cn(CCOc3ccc(NC(=O)Nc4nc(CC(=O)N5CCN(C)CC5)cs4)cc3)nn2)Sc2nc(=O)[nH]cc2Cl)c(F)c1` [Compound I-373], for which the Kd on CNOT7 (setting [2]) is > 25 µM. Further, the Activity by gel result in test [1] is “+”.

With `COc1ccc(C(C)NC(=O)C(CCOCCOCCOCCn2cc(CCc3ccc(NC(=O)Nc4nc(CC(=O)N5CCN(C)CC5)cs4)cc3)nn2)Sc2nc(=O)[nH]cc2C)c(F)c1` (centres unmarked) [Compound I-382], the Activity by gel result in test [1] is “+”.

At CNOT7 (setting [2]), `COc1ccc(C(C)NC(=O)C(CCOCCOCCOCCn2cc(COCCOCCOc3ccc(NC(=O)Nc4nc(CC(=O)N5CCN(C)CC5)cs4)cc3)nn2)Sc2nc(=O)[nH]cc2Cl)c(F)c1` (centres unmarked) [Compound I-395] gave a Kd of 1 to 25 µM. In addition, in test [1], the Activity by gel entry is recorded as “+ (weak)”.

For `COc1ccc([C@@H](C)NC(=O)[C@H](CCOCCOCCOCCn2cc(COCCOCCOCCOCCOc3ccc(NC(=O)Nc4nc(CC(=O)N5CCN(C)CC5)cs4)cc3)nn2)Sc2nc(=O)[nH]cc2Cl)c(F)c1` [Compound I-398], the Activity by gel result in test [1] is on record as “−”.

Turning to `COc1ccc2c(c1)CC(COCCOCCOCCOCc1cn(CCOc3ccc(NC(=O)Nc4nc(CC(=O)N5CCN(C)CC5)cs4)cc3)nn1)N(C(=O)CSc1nc(=O)[nH]cc1C)C2` (centres unmarked) [Compound I-451], on CNOT7 (setting [2]), the Kd is > 25 µM. In addition, the Activity by gel entry in test [1] is on record as “−”.

For the molecule `COc1ccc(CNC(=O)[C@H](COCCOCCOCCn2cc(COCCOCCOc3ccc(NC(=O)Nc4nc(CC(=O)N5CCN(C)CC5)cs4)cc3)nn2)Sc2nc(=O)[nH]cc2C)cc1` [Compound I-469], at CNOT7 (setting [2]), the Kd fell in the range of 1 to 25 µM. Further, in test [1], the Activity by gel entry is given as “−”.

As to `COc1ccc(CNC(=O)[C@@H](COCCOCCOCCn2cc(COCCOCCOc3ccc(NC(=O)Nc4nc(CC(=O)N5CCN(C)CC5)cs4)cc3)nn2)Sc2nc(=O)[nH]cc2C)c(F)c1` [Compound I-473], on CNOT7 (setting [2]), the Kd lay in the range of 1 to 25 µM. Further, in test [1], the Activity by gel result is reported as “−”.

Take `COc1ccc([C@@H](C)NC(=O)[C@H](CCC(=O)N(C)Cc2cn(CCOc3ccc(NC(=O)Nc4nc(CC(=O)N5CCN(C)CC5)cs4)cc3)nn2)Sc2nc(=O)[nH]cc2C)c(F)c1` [Compound I-505]: the Activity by gel result in test [1] is listed as “−”.

Turning to `COc1ccc([C@@H](C)NC(=O)[C@@H](CCC(=O)N(C)Cc2cn(CCOc3ccc(NC(=O)Nc4nc(CC(=O)N5CCN(C)CC5)cs4)cc3)nn2)Sc2nc(=O)[nH]cc2C)c(F)c1` [Compound I-506], in test [1], the Activity by gel entry is “−”.

With `COc1ccc(C(C)NC(=O)C(CCC(=O)N(C)c2cccc(OCCOc3ccc(NC(=O)Nc4nc(CC(=O)N5CCN(C)CC5)cs4)cc3)c2)Sc2nc(=O)[nH]cc2C)c(F)c1` (centres unmarked) [Compound I-515], the Activity by gel result in test [1] is on record as “−”.

As to `Cc1c[nH]c(=O)nc1SCC(=O)NCc1ccc(OCCOCCOCCOCCn2cc(COc3ccc(NC(=O)Nc4nc(CC(=O)N5CCN(C)CC5)cs4)cc3)nn2)cc1` [Compound I-533], the Activity by gel entry in test [1] is reported as “−”.

By Kd is commonly meant the concentration at which binding is half-saturated.

The record behind these values is patent publication US20260199485A1, “RNA DEGRADERS AND USES THEREOF” (Arrakis Therapeutics, Inc., priority 2022, published 2026).
